Results: ChEMBL document CHEMBL1201862, “PubChem BioAssay data set” (2004)
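How tested: cells in 96-well plates exposed to compound for 48 hours at five concentrations. GI50 is the concentration that inhibits growth by half.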 The source made the active and inactive calls. No stated cut-off is given here; in the data, active = GI50 up to about 1.1 µM and inactive = higher.

Columns and labels:
Experiment in all cases: NCI-60 cell line screen, 48 h
[1] = system: Malme-3M
[2] = system: SN12C
[3] = system: M14
[4] = system: MOLT-4
[5] = system: NCI-H226
[6] = system: MDA-MB-435
[7] = system: U-251
[8] = system: SK-OV-3
[9] = system: CAKI-1
[10] = system: RXF 393
[11] = system: OVCAR-5
[12] = system: SW-620
[13] = system: DU-145
[14] = system: OVCAR-8
[15] = system: A498
[16] = system: A549
[17] = system: RPMI-8226
[18] = system: SK-MEL-5
[19] = system: SF-268
[20] = system: TK-10

| Compound | GI50 [1] | GI50 [2] | GI50 [3] | GI50 [4] | GI50 [5] | GI50 [6] | GI50 [7] | GI50 [8] | GI50 [9] | GI50 [10] | GI50 [11] | GI50 [12] | GI50 [13] | GI50 [14] | GI50 [15] | GI50 [16] | GI50 [17] | GI50 [18] | GI50 [19] | GI50 [20] |
| --- | --- | --- | --- | --- | --- | --- | --- | --- | --- | --- | --- | --- | --- | --- | --- | --- | --- | --- | --- | --- |
| C=CCCCCOC1C=CC(O)C(CO)O1 (stereo not given) | > 100 µM (inactive) | > 100 µM (inactive) | > 100 µM (inactive) | > 100 µM (inactive) | > 100 µM (inactive) | > 100 µM (inactive) | > 100 µM (inactive) | > 100 µM (inactive) | > 100 µM (inactive) | > 100 µM (inactive) | > 100 µM (inactive) | > 100 µM (inactive) | > 100 µM (inactive) | > 100 µM (inactive) | > 100 µM (inactive) | > 100 µM (inactive) | > 100 µM (inactive) | > 100 µM (inactive) | > 100 µM (inactive) | > 100 µM (inactive) |
| CCCCCCCCCCC(O)C1CCC(C(O)CCC(O)C2CCC(CCCCCCC[C@H](O)CC3=C[C@@H](C)OC3=O)O2)O1 (stereo not given in full) | 29.6 µM (inactive) | > 48.9 µM (inactive) | > 100 µM (inactive) | 2.02 µM (inactive) | 2.64 µM (inactive) | 6.28 µM (inactive) | 10.2 µM (inactive) | 30.3 µM (inactive) | > 70.8 µM (inactive) | 5.81 µM (inactive) | > 100 µM (inactive) | > 51.4 µM (inactive) | > 10 µM (inactive) | 10.2 µM (inactive) | 22.2 µM (inactive) | 15.1 µM (inactive) | 0.855 µM (active) | 0.01 µM (active) | 9.23 µM (inactive) | 30.3 µM (inactive) |
| Cn1c(=O)n2n(c1=O)C1C(=CC2)C2C=CC1n1c(=O)n(C)c(=O)n12 (stereo not given) | > 100 µM (inactive) | > 100 µM (inactive) | > 100 µM (inactive) | > 100 µM (inactive) | > 100 µM (inactive) | > 100 µM (inactive) | > 100 µM (inactive) | > 100 µM (inactive) | > 100 µM (inactive) | > 100 µM (inactive) | > 100 µM (inactive) | > 100 µM (inactive) | > 100 µM (inactive) | > 100 µM (inactive) | > 100 µM (inactive) | > 100 µM (inactive) | > 100 µM (inactive) | > 100 µM (inactive) | > 100 µM (inactive) | > 100 µM (inactive) |
| CCOC(=O)/C=C(\C(=O)OCC)n1ccc(=O)n(Cc2cnnn2COCCOC(C)=O)c1=O | 2.04 µM (inactive) | 15.4 µM (inactive) | 15.1 µM (inactive) | 2.59 µM (inactive) | 16.8 µM (inactive) | 8.59 µM (inactive) | 16.4 µM (inactive) | 53.7 µM (inactive) | 2.97 µM (inactive) | 1.85 µM (inactive) | 15.6 µM (inactive) | 2.16 µM (inactive) | 18.8 µM (inactive) | 12.1 µM (inactive) | 23 µM (inactive) | 21.6 µM (inactive) | 8.15 µM (inactive) | 21.9 µM (inactive) | 16.5 µM (inactive) | 5.64 µM (inactive) |
| CC(C)C1CSC2N1C(=O)C2(OCc1ccccc1)C1CC1 (stereo not given) | > 100 µM (inactive) | > 100 µM (inactive) | > 100 µM (inactive) | 97.1 µM (inactive) | > 100 µM (inactive) | > 100 µM (inactive) | > 100 µM (inactive) | > 100 µM (inactive) | > 100 µM (inactive) | > 100 µM (inactive) | > 100 µM (inactive) | > 100 µM (inactive) | > 100 µM (inactive) | > 100 µM (inactive) | 51.3 µM (inactive) | > 100 µM (inactive) | 89.1 µM (inactive) | > 100 µM (inactive) | > 100 µM (inactive) | > 100 µM (inactive) |
| C/C(=N\Nc1nc2ccccc2o1)c1cccc[n+]1[O-] | 2.27 µM (inactive) | 18.6 µM (inactive) | 5.87 µM (inactive) | 1.5 µM (inactive) | 45.7 µM (inactive) | 44 µM (inactive) | 8.26 µM (inactive) | 22.5 µM (inactive) | 2.69 µM (inactive) | 24.6 µM (inactive) | 11.4 µM (inactive) | 5.12 µM (inactive) | 27.8 µM (inactive) | 20 µM (inactive) | 45.1 µM (inactive) | 24.5 µM (inactive) | 12 µM (inactive) | 23.9 µM (inactive) | 19.1 µM (inactive) | 3.52 µM (inactive) |
| CSc1nc2c(c(N(C)C)n1)C=Nn1c(nc3ccccc31)S2 | 91 µM (inactive) | > 100 µM (inactive) | > 100 µM (inactive) | > 100 µM (inactive) | > 100 µM (inactive) | > 100 µM (inactive) | > 100 µM (inactive) | > 100 µM (inactive) | > 100 µM (inactive) | 29 µM (inactive) | > 100 µM (inactive) | > 100 µM (inactive) | 78 µM (inactive) | 74.3 µM (inactive) | > 100 µM (inactive) | 69 µM (inactive) | > 100 µM (inactive) | 52.1 µM (inactive) | 60.4 µM (inactive) | > 100 µM (inactive) |
| CC(C)=C[C@@H]1C[C@H](n2cc(C)c(=O)[nH]c2=O)ON1CCO | > 100 µM (inactive) | > 100 µM (inactive) | > 100 µM (inactive) | > 100 µM (inactive) | > 100 µM (inactive) | > 100 µM (inactive) | > 100 µM (inactive) | > 100 µM (inactive) | > 100 µM (inactive) | > 100 µM (inactive) | > 100 µM (inactive) | > 100 µM (inactive) | > 100 µM (inactive) | > 100 µM (inactive) | > 100 µM (inactive) | > 100 µM (inactive) | > 100 µM (inactive) | > 100 µM (inactive) | > 100 µM (inactive) | > 100 µM (inactive) |
| CSCCC(NC(=O)OC(C)(C)C)C(=O)NCCNc1ccc(NCCNC(=O)C(CCSC)NC(=O)OC(C)(C)C)c2c1C(=O)c1ccccc1C2=O (stereo not given) | 2.33 µM (inactive) | 7.71 µM (inactive) | 3.85 µM (inactive) | 3.44 µM (inactive) | 6.76 µM (inactive) | 2.63 µM (inactive) | 2.88 µM (inactive) | 8.89 µM (inactive) | 4.75 µM (inactive) | 16.3 µM (inactive) | 5.74 µM (inactive) | 2.23 µM (inactive) | 4.79 µM (inactive) | 1.96 µM (inactive) | 4.62 µM (inactive) | 2.84 µM (inactive) | 3.01 µM (inactive) | 3.07 µM (inactive) | 3.37 µM (inactive) | 3.38 µM (inactive) |
| Sc1cnnc2ccc(Br)cc12 | 24.7 µM (inactive) | 69.5 µM (inactive) | 61 µM (inactive) | 40.2 µM (inactive) | 49.3 µM (inactive) | 27.4 µM (inactive) | 38.7 µM (inactive) | > 100 µM (inactive) | 73.1 µM (inactive) | 22.7 µM (inactive) | > 100 µM (inactive) | > 100 µM (inactive) | 50.7 µM (inactive) | 59.2 µM (inactive) | 53.3 µM (inactive) | 36.1 µM (inactive) | 69 µM (inactive) | 32.1 µM (inactive) | 58.7 µM (inactive) | 38.6 µM (inactive) |
